Experimental findings from patent EP0677293A1, “PHARMACEUTICAL USE OF TERPYRIDINE DERIVATIVE” (priority 1992, dated 1994) are described below.

Read-outs that look alike come from different tables or passages of the source.

Assay [1] has as its system Astroglial cells derived from the mouse forebrain. Kind of assay: Synthesis-stimulating activity on NGF (NGF level in culture medium by enzyme immunoassay). In kind it is cell-based. The note with it: Mus musculus, 24 h; for fold induction at 2 µg/mL / fold induction at 50 µg/mL: read-out: Synthesis-Stimulating Activity on NGF. As for the experimental part: The activity of accelerating secretion of NGF was evaluated by the following method.
Each compound shown in Table 1 was dissolved in dimethylsulfoxide (DMSO) to adjust the concentration in the range of 2 mg/ml to 10 mg/ml.
Astroglial cells derived from the mouse forebrain (cells that synthesize and secrete NGF)
Astroglial cells obtained from the mouse forebrain were cultured into 8 x 10⁵ cells/ml in Dulbecco's modified Eagle's medium obtained from Gibco, glucose-rich, containing 20% fetal calf serum, 100 units/ml of penicillin and 100 µg/ml of streptomycin. A 0.1 ml/well aliquot was inoculated on a 96-well plate obtained from Falcon and having an area of 0.32 cm² per well and cultured at 37°C in an atmosphere of 5% CO₂. The culture medium was removed 72 hours later and instead, a 0.1 ml/well aliquot of fresh Dulbecco's modified Eagle's medium containing 0.5% bovine albumin powders obtained from Armour, 100 units/ml of penicillin and 100 µg/ml of streptomycin was supplemented to the system followed by culturing at 37°C in 5% CO₂. The above medium containing the compound each having various concentrations was exchanged 72 hours later. For the purpose of comparison, the medium which contains only DMSO was also prepared (control).
The synthesis-stimulating activity on NGF by the compound of the present invention is shown in terms of a ratio when the NGF level in the control containing only DMSO was made 1.0.

Assay [2] has as its system Cerebral cortical neuronal cells from an 18-day-old rat embryo. Briefly: Test on neurotrophic activity (living cells counted by fluorescein diacetate fluorescence, with or without hypoxic load). In kind it is cell-based. As for the experimental part:
The neurotrophic activity was determined by the following method. Each compound was dissolved in DMSO to adjust the concentration in the range of 2 mg/ml to 10 mg/ml. Cerebral cortical neuronal cells from an 18-day-old rat embryo […] After 24 hours of incubation, the culture medium was removed and a 0.5 ml/well aliquot of a serum-free fresh DF medium containing the respective compounds having various concentrations, 5 µg/ml of transferrin, 5 µg/ml of insulin and 20 pmoles/ml of progesterone was supplemented to the system. For the purpose of comparison, the medium containing only DMSO was added was also prepared. At this stage, the two same plates were used. After 72 hours of incubation in various medium, hypoxia was loaded on one plate by reducing the concentration of oxygen to the minimum concentration of 1% using a N₂-O₂-CO₂ incubator (manufactured by Tabai, Model BNP-100) and culturing for 4 hours under the conditions. Another plate was cultured in an atmosphere of 5% CO₂ and 95% air, without hypoxic load. After the incubation was continued for further 48 hours, living cells were counted. The culture medium was removed and fluorescein diacetate (FDA) reagent was reacted. After washing with phosphate buffer, pH 7.4, the fluorescent intensity (E x 485/Em 530) was measured by CytoFlour^TM 2300, manufactured by Millipore.

Where [3] appears, read: no hypoxic load, ratio of fluorescent intensity to DMSO control = 1.0, read-out: Neurotrophic Activity No Hypoxic Load.
The mark [4] stands for this setting: 4 h, hypoxic load (1% oxygen, 4 hours), ratio of fluorescent intensity to DMSO control = 1.0, read-out: Neurotrophic Activity Hypoxic Load.
Setting [5] is: 2 µg/ml, ratio to DMSO control = 1.0, 24 hours.
[6] abbreviates: 50 µg/ml, ratio to DMSO control = 1.0, 24 hours.

On to `c1ccc(-c2cccc(-c3ccccn3)n2)nc1` [Compound 1], for which, in assay [1] (1 µg/ml, ratio to DMSO control = 1.0), the fold induction at 1 µg/mL is 2.3. In addition, in assay [1] (ratio to DMSO control = 1.0), the fold induction at 5 µg/mL turned out to be 3.5. Moreover, in assay [2] (setting [3]), the viability at 2 µg/mL was 270% and the viability at 10 µg/mL was 320%. Besides, in assay [2] (setting [4]), the viability at 2 µg/mL turned out to be 140% and the viability at 10 µg/mL came to 220%.

In the case of `c1ccc(-c2cc(-c3ccccn3)nc(-c3ccccn3)c2)cc1` [Compound 2, 4'-Phenyl-2,2':6',2''-terpyridine], in assay [1] (ratio to DMSO control = 1.0), the fold induction at 20 µg/mL was 2.6 and the fold induction at 100 µg/mL was 2.2. In assay [2] (setting [3]), the viability at 2 µg/mL worked out at 180% and the viability at 10 µg/mL came to 130%. For the same molecule, in assay [2] (setting [4]), the viability at 2 µg/mL worked out at 170% and the viability at 10 µg/mL was 50%.

Consider `Cc1ccccc1-c1cc(-c2ccccn2)nc(-c2ccccn2)c1` [Compound 3, 4'-(2-Methylphenyl)-2,2':6',2''-terpyridine], for which, in assay [1] (setting [5]), the fold induction at 2 µg/mL came to 1.5. In assay [1] (ratio to DMSO control = 1.0), the fold induction at 10 µg/mL came to 2.9. Further, in assay [2] (setting [3]), the viability at 2 µg/mL is 240% and the viability at 10 µg/mL is 150%. For the same molecule, in assay [2] (setting [4]), the viability at 2 µg/mL came out at 280% and the viability at 10 µg/mL stood at 140%.

Consider `Cc1cccc(-c2cc(-c3ccccn3)nc(-c3ccccn3)c2)c1` [Compound 4, 4'-(3-Methylphenyl)-2,2':6',2''-terpyridine], for which, in assay [1] (setting [5]), the fold induction at 2 µg/mL turned out to be 1.8. Moreover, the fold induction at 10 µg/mL in assay [1] (ratio to DMSO control = 1.0) came out at 1.3. Besides, in assay [1] (setting [6]), the fold induction at 50 µg/mL came to 1.2. Also, the viability at 2 µg/mL in assay [2] (setting [3]) was determined as 170%; in assay [2] (setting [4]), 180%.

On to `CCc1ccc(-c2cc(-c3ccccn3)nc(-c3ccccn3)c2)cc1` [Compound 7, 4'-(4-Ethylphenyl)-2,2':6',2''-terpyridine], for which the fold induction at 2 µg/mL in assay [1] (setting [5]) is 2.9. Besides, the fold induction at 10 µg/mL in assay [1] (ratio to DMSO control = 1.0) amounted to 1. Further, the fold induction at 50 µg/mL in assay [1] (setting [6]) came out at 1.2.

For the molecule `CC(C)c1ccc(-c2cc(-c3ccccn3)nc(-c3ccccn3)c2)cc1` [Compound 8, 4'-(4-Isopropylphenyl)-2,2':6',2''-terpyridine], the fold induction at 2 µg/mL in assay [1] (setting [5]) was 1.7. Moreover, the fold induction at 10 µg/mL in assay [1] (ratio to DMSO control = 1.0) worked out at 3.2. Besides, in assay [1] (setting [6]), the fold induction at 50 µg/mL amounted to 2.4.

With `Clc1ccc(-c2cc(-c3ccccn3)nc(-c3ccccn3)c2)cc1` [Compound 11, 4'-(4-Chlorophenyl)-2,2':6',2''-terpyridine], in assay [1] (ratio to DMSO control = 1.0), the fold induction at 5 µg/mL amounted to 4.7. In assay [1] (17 µg/ml, ratio to DMSO control = 1.0), the fold induction at 17 µg/mL came out at 3.4. Also, the fold induction at 50 µg/mL in assay [1] (setting [6]) came to 2.2. In addition, the results for the viability at 2 µg/mL in assay [2] (setting [3]) and in assay [2] (setting [4]) were 170% and 160%, respectively. Also, the figures for the viability at 10 µg/mL in assay [2] (setting [3]) and in assay [2] (setting [4]) were 130% and 140%, respectively.

`Oc1ccccc1-c1cc(-c2ccccn2)nc(-c2ccccn2)c1` [Compound 12, 2-(2,2':6',2''-Terpyridin-4'-yl)phenol]: in assay [1] (ratio to DMSO control = 1.0), the fold induction at 20 µg/mL stood at 3.7 and the fold induction at 100 µg/mL worked out at 3.

Turning to `COc1ccc(-c2cc(-c3ccccn3)nc(-c3ccccn3)c2)cc1` [Compound 13, 4'-(4-Methoxyphenyl)-2,2':6',2''-terpyridine], in assay [1] (ratio to DMSO control = 1.0), the fold induction at 20 µg/mL was found to be 1.7 and the fold induction at 100 µg/mL was 1.8. Further, the viability at 2 µg/mL in assay [2] (setting [3]) is 180%. Moreover, the viability at 2 µg/mL in assay [2] (setting [4]) was found to be 70%.

As to `CCOc1ccc(-c2cc(-c3ccccn3)nc(-c3ccccn3)c2)cc1` [Compound 14, 4'-(4-Ethoxyphenyl)-2,2':6',2''-terpyridine], in assay [1] (setting [5]), the fold induction at 2 µg/mL is 2.1. Also, the fold induction at 10 µg/mL in assay [1] (ratio to DMSO control = 1.0) stood at 4.8. For the same molecule, in assay [1] (setting [6]), the fold induction at 50 µg/mL was 2.9.

Consider `OCCOc1ccc(-c2cc(-c3ccccn3)nc(-c3ccccn3)c2)cc1` [Compound 15, 2-[4-(2,2':6',2''-Terpyridin-4'-yl)phenoxy]ethanol], for which, in assay [1] (ratio to DMSO control = 1.0), the fold induction at 20 µg/mL stood at 1.7 and the fold induction at 100 µg/mL was 4.2.

As for `O=[N+]([O-])c1cccc(-c2cc(-c3ccccn3)nc(-c3ccccn3)c2)c1` [Compound 17, 4'-(3-Nitrophenyl)-2,2':6',2''-terpyridine], in assay [1] (ratio to DMSO control = 1.0), the fold induction at 20 µg/mL amounted to 1 and the fold induction at 100 µg/mL is 2.8.

On to `Nc1cccc(-c2cc(-c3ccccn3)nc(-c3ccccn3)c2)c1` [Compound 18, 4'-(3-Aminophenyl)-2,2':6',2''-terpyridine], for which, in assay [1] (ratio to DMSO control = 1.0), the fold induction at 10 µg/mL is 5.7, the fold induction at 30 µg/mL is 2 and the fold induction at 100 µg/mL turned out to be 4.6. Besides, the viability at 2 µg/mL in assay [2] (setting [3]) stood at 110%. For the same molecule, in assay [2] (setting [4]), the viability at 2 µg/mL is 140%.

For the molecule `O=C(O)c1ccc(-c2cc(-c3ccccn3)nc(-c3ccccn3)c2)cc1` [Compound 19, 4-(2,2':6',2''-Terpyridin-4'-yl)benzoic acid], the fold induction at 2 µg/mL in assay [1] (setting [5]) amounted to 2.4. For the same molecule, the fold induction at 10 µg/mL in assay [1] (ratio to DMSO control = 1.0) is 2.4. Also, in assay [1] (setting [6]), the fold induction at 50 µg/mL came out at 3.6.

In the case of `BrCc1ccc(-c2cc(-c3ccccn3)nc(-c3ccccn3)c2)cc1` [Compound 21, 4'-(4-Bromomethylphenyl)-2,2':6',2''-terpyridine], in assay [1] (ratio to DMSO control = 1.0), the fold induction at 20 µg/mL was 2.7. In assay [1] (ratio to DMSO control = 1.0), the fold induction at 100 µg/mL is 5.2. Besides, the viability at 2 µg/mL in assay [2] (setting [3]) amounted to 140%; in assay [2] (setting [4]) it was 200%.

Turning to `c1ccc(-c2cc(-c3ccc(Cn4cccc4)cc3)cc(-c3ccccn3)n2)nc1` [Compound 22, 4'-[4-(1-pyrrorylmethyl)phenyl]-2,2':6',2''-terpyridine], the fold induction at 2 µg/mL in assay [1] (setting [5]) came out at 1.7. In addition, the fold induction at 10 µg/mL in assay [1] (ratio to DMSO control = 1.0) was 1.1. For the same molecule, the viability at 2 µg/mL was 120% in assay [2] (setting [3]) and 100% in assay [2] (setting [4]). Further, the viability at 10 µg/mL in assay [2] (setting [3]) is 170%; in assay [2] (setting [4]), 180%.

`C[N+](C)(C)Cc1ccc(-c2cc(-c3ccccn3)nc(-c3ccccn3)c2)cc1` [Compound 23, N,N,N-Trimethyl-N-[4-(2,2':6',2''-terpyridin-4'-yl)phenylmethyl]ammonium bromide]: in assay [1] (ratio to DMSO control = 1.0), the fold induction at 10 µg/mL is 3.2, the fold induction at 30 µg/mL turned out to be 5.6 and the fold induction at 100 µg/mL came to 1.3. In assay [2] (setting [3]), the viability at 2 µg/mL was 250% and the viability at 10 µg/mL is 130%. In addition, in assay [2] (setting [4]), the viability at 2 µg/mL was 300% and the viability at 10 µg/mL was 160%.

Regarding `CCCCCCCCCCCC[N+](C)(C)Cc1ccc(-c2cc(-c3ccccn3)nc(-c3ccccn3)c2)cc1` [Compound 24, N-Dodecyl-N,N-dimethyl-N-[4-(2,2':6',2''-terpyridin-4'-yl)phenylmethyl]ammonium bromide], in assay [1], the fold induction at 2 µg/mL turned out to be 2.1. The fold induction at 50 µg/mL in assay [1] stood at 1. Further, the viability at 2 µg/mL in assay [2] (setting [3]) was 200%; in assay [2] (setting [4]), 190%.

Regarding `c1cc[n+](Cc2ccc(-c3cc(-c4ccccn4)nc(-c4ccccn4)c3)cc2)cc1` [Compound 25, 1-[4-(2,2':6',2''-Terpyridin-4'-yl)phenylmethyl]pyridinium bromide], the fold induction at 2 µg/mL in assay [1] (setting [5]) came out at 1.2. The fold induction at 10 µg/mL in assay [1] (ratio to DMSO control = 1.0) came out at 1.1. For the same molecule, in assay [1] (setting [6]), the fold induction at 50 µg/mL was 2.9. Also, the viability at 2 µg/mL came out at 140% in assay [2] (setting [3]) and 110% in assay [2] (setting [4]).

Take `CCCCCCCCCc1cc[n+](Cc2ccc(-c3cc(-c4ccccn4)nc(-c4ccccn4)c3)cc2)cc1` [Compound 26, 4-Nonyl-1-[4-(2,2':6',2''-terpyridin-4'-yl)phenylmethyl]pyridinium bromide]: in assay [1] (ratio to DMSO control = 1.0), the fold induction at 20 µg/mL amounted to 3 and the fold induction at 100 µg/mL was found to be 3. In addition, in assay [2] (setting [3]), the viability at 2 µg/mL was determined as 160% and the viability at 10 µg/mL is 140%. For the same molecule, in assay [2] (setting [4]), the viability at 2 µg/mL is 140% and the viability at 10 µg/mL turned out to be 130%.
